Measurements as given in patent US20230123588A1, “METHODS OF SLOWING BRAIN VOLUME LOSS” (ACTELION PHARMACEUTICALS LTD, priority 2020, published 2023).

Tests used:
[1] = system: adult subjects with brain volume loss (relapsing multiple sclerosis); assay: Reasons for premature treatment discontinuation in the study; format: in vivo; settings: for subjects discontinued due to AEs or tolerability related reasons / subjects discontinued due to efficacy related reasons: ponesimod 20 mg, teriflunomide 14 mg
Experimental: A total of 1468 subjects were screened. Of those, 1133 subjects were randomized (567 to ponesimod 20 mg and 566 to teriflunomide 14 mg) across 162 sites in 28 countries, and 1131 subjects received at least one dose of study drug. The disposition of subjects is summarized in Table 1 and a summary of reasons (primary reason) for treatment discontinuation are shown in Table 2. Overall treatment and study discontinuation were balanced across both treatment arms. A total of 6.5% and 2.5% of the subjects discontinued due to AEs or tolerability related reasons in ponesimod 20 mg and teriflunomide 14 mg, respectively, while 1.9% and 4.3% discontinued due to efficacy related reasons. There were 2 deaths reported during the study—both on teriflunomide 14 mg.

[2] = system: adult subjects with brain volume loss (relapsing multiple sclerosis); assay: Treatment-emergent adverse events, AESIs and deaths (Safety Set); format: in vivo, human; settings: Ponesimod 20 mg N = 565, Teriflunomide 14 mg N = 566
Experimental: The most common AESIs were reported for category hepatobiliary disorders/liver enzyme abnormality (25.7% vs 14.5% in ponesimod 20 mg compared to teriflunomide 14 mg, respectively), followed by category hypertension (10.1% vs 9.0%), and pulmonary events (8.0% vs 2.7%).

[3] = system: adult subjects with brain volume loss (relapsing multiple sclerosis); settings: human, in vivo
From the text: Based on the individual case review, most ALT/AST increases ≥3×ULN occurred as a single transient asymptomatic episode, resolving with continued treatment or after protocol mandated treatment discontinuation. All but one case of bilirubin increase ≥2×ULN occurred in subjects with pre-treatment bilirubin increases. One case of potential Hy's law occurred in a subject with pre-existing transaminase elevation (ALT>5×ULN), and the event fully resolved within 2 weeks after treatment discontinuation.

[4] = system: adult subjects with brain volume loss (relapsing multiple sclerosis); assay: 12-lead ECG heart rate and first-dose monitoring on Day 1; format: in vivo, human; settings: for mean heart rate reduction compared to pre-dose: Day 1, 2-hours post dose, 12-lead ECG, ponesimod 20 mg arm, teriflunomide 14 mg; for subjects with asymptomatic post-dose HR≤40 bpm: Day 1, all had pre-treatment HR<55 bpm
Experimental: The incidence of treatment-emergent heart rate and rhythm (including hypotension) AESIs on Day 1 was higher in the ponesimod 20 mg arm (2.1%) than in the teriflunomide 14 mg arm (0.4%). However, the overall incidence of first dose AESI on Day 1 was low (2.1%) in ponesimod. None of these events were serious nor led to permanent discontinuation of study treatment. Discharge criteria at 4 hours post-dose were met for ca. 99% of subjects. […] ECG HR effect: nadir at 2 hours post-dose (siponimod—3-4 hours, fingolimod—around by 6 hours). Low incidence of low HR outliers (post-dose HR≤40 bpm), all 3 of them with a pre-treatment HR of <55 bpm, which is a known risk factor for post-dose bradycardia with S1P receptor modulators.
The mean heart rate reduction compared to pre-dose reached a maximum for ponesimod 20 mg at 2-hours post dose, −8.7 bpm compared to −1.7 bpm for teriflunomide 14 mg (FIG. 2).

[5] = system: adult subjects with brain volume loss (relapsing multiple sclerosis); assay: Percent change in brain volume from baseline (MRI, SIENA) in randomized double-blind study of ponesimod vs teriflunomide; format: in vivo, human; settings: Week 60
[6] = system: adult subjects with brain volume loss (relapsing multiple sclerosis); assay: as above; format: in vivo, human; settings: for LS Mean difference in percent change in brain volume (Ponesimod 20 mg − Teriflunomide 14 mg) / LS Mean percent change in brain volume from baseline: Week 108; for brain volume loss (BVL) up to EOS: teriflunomide 14 mg
Experimental: Main analysis set for efficacy: The Full Analysis Set (FAS) included all randomized subjects. Subjects were evaluated according to the treatment they were randomized to.
Efficacy variable/timepoint: The endpoint was brain volume loss up to the end of study (EOS). All available data up to EOS, regardless of treatment discontinuation was included (ITT approach).
Using a mixed model with linear time effect (adjusted for stratification factors, presence/absence of GD+T1 lesions at baseline, and normalized brain volume at baseline), the LS mean percent change from baseline to Week 108 in brain volume was −0.91% in the ponesimod 20 mg group (n=436) and −1.25% in the teriflunomide 14 mg group (n=434). The LS mean difference (ponesimod 20 mg—teriflunomide 14 mg) was 0.34% (95% CLs: 0.17, 0.50; p<0.0001).
Results of the analysis using a repeated measurements ANOVA model (MMRM) were consistent with that described above with respect to the mixed model with linear time effect.

[7] = other S1P receptor modulators, given for comparison; cited from earlier work
[8] = Safety Set, Ponesimod 20 mg N = 565, Teriflunomide 14 mg N = 566
[9] = mixed model with linear time effect
[10] = mixed model with linear time effect, Ponesimod 20 mg (436 subjects), Teriflunomide 14 mg (434 subjects)
[11] = repeated measurements ANOVA model (MMRM)
[12] = repeated measurements ANOVA model (MMRM), Ponesimod 20 mg (418 subjects), Teriflunomide 14 mg (414 subjects)
[13] = ponesimod 20 mg, up to end of study

Row | Structure (SMILES) | Premature discontinuation: Death (number) [1, 8] [n] | Premature discontinuation: Physician decision, Adverse event (number) [1, 8] [n] | Premature discontinuation: Physician decision, Adverse event (percent) [1, 8] | Premature discontinuation: Physician decision, Lack of efficacy/treatment failure (number) [1, 8] [n] | Premature discontinuation: Physician decision, Lack of efficacy/treatment failure (percent) [1, 8] | Premature discontinuation: Pre-specified study treatment discontinuation criteria (number) [1, 8] [n] | Premature discontinuation: Pre-specified study treatment discontinuation criteria (percent) [1, 8] | Premature discontinuation: Subject decision, Efficacy related (number) [1, 8] [n] | Premature discontinuation: Subject decision, Efficacy related (percent) [1, 8] | Premature discontinuation: Subject decision, Tolerability related (number) [1, 8] [n] | Premature discontinuation: Subject decision, Tolerability related (percent) [1, 8] | subjects discontinued due to AEs or tolerability related reasons [1] [%] | subjects discontinued due to efficacy related reasons [1] [%] | Subject with at least one Fatal AE [2] | proportion of subjects who experienced ALT increase >8×ULN [3] [%] | proportion of subjects who experienced ALT increase ≥3×ULN [3] [%] | mean heart rate reduction compared to pre-dose [4] [bpm] | subjects with asymptomatic post-dose HR≤40 bpm [4] | LS Mean percent change in brain volume from baseline [5, 10] [%] | LS Mean percent change in brain volume from baseline [5, 12] [%] | other results
1 | CCC/N=C1\S/C(=C\c2ccc(OC[C@H](O)CO)c(Cl)c2)C(=O)N1c1ccccc1C [Ponesimod, (R)-5-[3-chloro-4-(2,3-dihydroxy-propoxy)-benz[Z]ylidene]-2-([Z]-propylimino)-3-o-tolyl-thiazolidin-4-one] | 0 | 29 | (5.1) % | 4 | (0.7) % | 12 | (2.1) % | 7 | (1.2) % | 8 | (1.4) % | 6.5 | 1.9 | 0 n (%) | 0.7 | 17.3 | −8.7 | 3 subjects | −0.45 | −0.43 | 2nd or higher degree AV block ([4]; Day 1, first dose): No 2nd or higher degree AV block was observed; subjects meeting discharge criteria at 4 hours post-dose ([4]; Day 1, first dose): ca. 99%; time of ECG HR nadir (maximum mean heart rate reduction) post-dose ([4]; Day 1, first dose): 2 h; LS Mean difference in percent change in brain volume (Ponesimod 20 mg − Teriflunomide 14 mg) [5, 9]: 0.08%; LS Mean difference in percent change in brain volume (Ponesimod 20 mg − Teriflunomide 14 mg) [5, 11]: 0.13%; LS Mean difference in percent change in brain volume (Ponesimod 20 mg − Teriflunomide 14 mg) [6, 9]: 0.34%; LS Mean percent change in brain volume from baseline [6, 10]: −0.91%; LS Mean difference in percent change in brain volume (Ponesimod 20 mg − Teriflunomide 14 mg) [6, 11]: 0.34%; LS Mean percent change in brain volume from baseline [6, 12]: −0.92%; reduction of brain volume loss up to EOS compared to teriflunomide 14 mg ([6]; ponesimod 20 mg): about 27%; efficacy in slowing brain volume loss over teriflunomide (conclusion) ([6]; ponesimod 20 mg vs teriflunomide 14 mg): superior efficacy; brain volume loss (BVL) up to EOS [6, 13]: −0.91%; difference in BVL up to EOS, ponesimod 20 mg vs teriflunomide 14 mg ([6]; up to end of study, p<0.0001): 0.34%
2 | C/C(O)=C(\C#N)C(=O)Nc1ccc(C(F)(F)F)cc1 [Teriflunomide] | 2 | 9 | (1.6) % | 10 | (1.8) % | 16 | (2.8) % | 14 | (2.5) % | 5 | (0.9) % | 2.5 | 4.3 | 2 (0.4) n (%) | 2.1 | 8.3 | −1.7 | none | −0.53 | −0.55 | Premature discontinuation: Death (percent) [1, 8]: (0.4) %; LS Mean percent change in brain volume from baseline [6, 10]: −1.25%; LS Mean percent change in brain volume from baseline [6, 12]: −1.26%; brain volume loss (BVL) up to EOS [6, 13]: −1.25%
3 | CCCCCCCCc1ccc(CCC(N)(CO)CO)cc1 [fingolimod] | – | – | – | – | – | – | – | – | – | – | – | – | – | – | – | – | – | – | – | – | time of ECG HR nadir post-dose [7]: ~6 h
4 | CCc1cc(/C(C)=N/OCc2ccc(C3CCCCC3)c(C(F)(F)F)c2)ccc1CN1CC(C(=O)O)C1 [siponimod] | – | – | – | – | – | – | – | – | – | – | – | – | – | – | – | – | – | – | – | – | time of ECG HR nadir post-dose [7]: 3 to 4 h
